From patent publication US4120892A, “Anionic naphthalene thioureido naphthalene sulfonic acids” (American Cyanamid Company, priority 1977, dated 1978)
Where a name gives a salt, the structure may show the parent alone. Read-outs that look alike come from different tables or passages of the source.

Legend:
complement system = settings: reported in the literature; cited from earlier work
[1] = reported in The New England Journal of Medicine, 286, 808-812 (1972); cited from earlier work
whole complement = assay: In vivo complement inhibition in guinea pigs (serum whole complement, capillary tube assay); settings: Cavia porcellus, ip, guinea pig, intraperitoneal
Excerpt: An active inhibitor protects C2 from C1 and C4; (ii) Test, Code 035 (C3-C9 inhibitor -- This test determines the ability of the late components of human complement (C3-C9) to lyse EAC 142 in the presence of appropriate dilutions of the test compound. An active inhibitor protects EAC 142 from lysis by human C3-C9; (iii) Test, Code 036 (C-Shunt inhibitor) -- In this test human erythrocytes rendered fragile are lysed in autologous serum via the shunt pathway activated by cobra venom factor in the presence of appropriate dilutions of the test compound. Inhibition of the shunt pathway results in failure of lysis; (iv) Forssman Vasculitis Test -- Here, the well known complement dependent lesion, Forssman vasculitis, is produced in guinea pigs by intradermal injection of rabbit anti-Forssman antiserum. The lesion is measured in terms of diameter, edema and hemorrhage and the extent to which a combined index of these is inhibited by prior intraperitoneal injection of the test compound at 200 mg/kg is then reported, unless otherwise stated; (v) Forssman Shock Test -- Lethal shock is produced in guinea pigs by an i.v. injection of anti-Forssman antiserum and the harmonic mean death time of treated guinea pigs is compared with that of simultaneous controls; (vi) Complement Level Reduction Test -- In this test, the above dosed guinea pigs, or others, are bled for serum and the complement level is determined in undiluted serum by the capillary tube method of U.S. Pat. No. 3,876,376 and compared to undosed control guinea pigs; and (vii) Cap 50 Test -- Here, appropriate amounts of the test compound are added to a pool of guinea pig serum in vitro, after which the undiluted serum capillary tube assay referred to above is run. The concentration of compound inhibiting 50% is reported.
(§1) With reference to Table I, guinea pigs weighing about 300 g were dosed intravenously (i.v.) or intraperitoneally (i.p.) with 200 mg/kg of the test compound dissolved in saline and adjusted to pH 7-8. […] Percent inhibition was calculated by comparison with simultaneous controls. […]

human C1 = assay: Test, Code 026 (C1 inhibitor); format: biochemical; settings: activity in wells, two-fold serial dilution assay; higher well number indicates higher activity
Excerpt: (§2) An active inhibitor protects C2 from C1 and C4; (ii) Test, Code 035 (C3-C9 inhibitor -- This test determines the ability of the late components of human complement (C3-C9) to lyse EAC 142 in the presence of appropriate dilutions of the test compound. An active inhibitor protects EAC 142 from lysis by human C3-C9; (iii) Test, Code 036 (C-Shunt inhibitor) -- In this test human erythrocytes rendered fragile are lysed in autologous serum via the shunt pathway activated by cobra venom factor in the presence of appropriate dilutions of the test compound. Inhibition of the shunt pathway results in failure of lysis; (iv) Forssman Vasculitis Test -- Here, the well known complement dependent lesion, Forssman vasculitis, is produced in guinea pigs by intradermal injection of rabbit anti-Forssman antiserum. […]
as §1

[2] = system: late components of human complement (C3-C9); assay: Test, Code 035 (C3-C9 inhibitor; C-Late); format: cell-based; settings: activity in wells, two-fold serial dilution assay; higher well number indicates higher activity
Excerpt: as §2, §1

shunt pathway = assay: Test, Code 036 (C-Shunt inhibitor); format: cell-based, human; settings: activity in wells, two-fold serial dilution assay; higher well number indicates higher activity
Excerpt: as §2, §1

Molecule	anticomplementary effect / complement inhibition (complement system)	treatment of hereditary angioneurotic edema [1]	further results
Nc1ccc2cc(S(=O)(=O)O)cc(O)c2c1N=Nc1ccc(NC(=O)Nc2ccc(N=Nc3c(N)ccc4cc(S(=O)(=O)O)cc(O)c34)c(S(=O)(=O)O)c2)cc1S(=O)(=O)O [chlorazol fast pink, 3,3'-ureylenebis-[6-(2-amino-8-hydroxy-6-sulfo-1-naphthylazo)]benzenesulfonic acid, tetrasodium salt]	anticomplementary effect	–	–
heparin	anticomplementary effect	–	–
NCCCCCC(=O)O [epsilon-aminocaproic acid]	–	used with success in the treatment of hereditary angioneurotic edema	–
8-(3-benzamido-4-methylbenzamido)naphthalene-1,3,5-trisulfonic acid [Suramin]	competitive inhibitor of the complement system	used with success in the treatment of hereditary angioneurotic edema	–
NC[C@H]1CC[C@H](C(=O)O)CC1 [tranexamic acid]	–	used with success in the treatment of hereditary angioneurotic edema	–
O=S(=O)(O)c1cc(NC(=S)Nc2cc(S(=O)(=O)O)c3cc(NC(=S)Nc4cc(S(=O)(=O)O)cc5cc(S(=O)(=O)O)cc(S(=O)(=O)O)c45)cc(S(=O)(=O)O)c3c2)c2c(S(=O)(=O)O)cc(S(=O)(=O)O)cc2c1 [8,8'-[4,8-Disulfo-2,6-naphthylenebis(2-thioureylene)]-di-1,3,6-naphthalenetrisulfonic acid octasodium salt]	–	–	inhibition at 200 mg/kg (whole complement; 0.5 h, 30 minutes, read-out: In Vivo Activity (Guinea Pig) % Inhibition, Intraperitoneal, 30 minutes): -86%; inhibition at 200 mg/kg (whole complement; 1 h, 60 minutes, read-out: In Vivo Activity (Guinea Pig) % Inhibition, Intraperitoneal, 60 minutes): -84%; inhibition at 200 mg/kg (whole complement; 2 h, 120 minutes, read-out: In Vivo Activity (Guinea Pig) % Inhibition, Intraperitoneal, 120 minutes): -93%; Cl 026 Wells (human C1): +5 Wells; C-Late 035 Wells [2]: +2 Wells; Shunt Inhibition 036 Wells (shunt pathway): +2 Wells
